± gives the standard deviation of the averaged measurements.
Columns and labels:
STS26T [1] = assay: % inhibition of CellTiter-Glo viability at highest tested concentration (72 h), relative to DMSO and benzethonium chloride controls; higher = more inhibition
In short: (§1)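 Viability of MPNST cell lines and primary human Schwann cells was read as CellTiter-Glo ATP luminescence after 72 h at 37 °C, 5% CO2, in 384-well plates seeded with 750–1000 cells per well. Each compound had been preprinted at five concentrations in 10-fold steps. Signals were scaled between vehicle and positive-control wells, duplicates averaged where present, and fitted with four-parameter logistic curves. Drug sensitivity score and relative IC50 (censored at the top concentration) come from those fits, and percent inhibition is taken at the top concentration.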

[2] = tested on: HSC1 (primary human Schwann cells); assay: as above
In short: as §1

HS-PSS [3] = assay: as above
In short: as §1

S462 [4] = assay: as above
In short: as §1

[5] = tested on: HSC2 (primary human Schwann cells); assay: as above
In short: as §1

HS-Sch-2 [6] = assay: as above
In short: as §1

S1507-2 [7] = assay: as above
In short: as §1

YST-1 [8] = assay: as above
In short: as §1

ST8814 [9] = assay: as above
In short: as §1

STS26T [10] = assay: drug sensitivity score (DSS, CellTiter-Glo viability, 72 h) (DSS (dimensionless)); higher = more sensitive; extreme values may be limits of the assay
In short: as §1

[11] = tested on: HSC1 (primary human Schwann cells); assay: as above
In short: as §1

HS-PSS [12] = assay: as above
In short: as §1

S462 [13] = assay: as above
In short: as §1

[14] = tested on: HSC2 (primary human Schwann cells); assay: as above
In short: as §1

HS-Sch-2 [15] = assay: as above
In short: as §1

S1507-2 [16] = assay: as above
In short: as §1

YST-1 [17] = assay: as above
In short: as §1

ST8814 [18] = assay: as above
In short: as §1

STS26T [19] = assay: drug sensitivity score (DSS, CellTox-Green cytotoxicity, 72 h) (DSS (dimensionless)); higher = more cytotoxic; extreme values may be limits of the assay
In short: (§2)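 MPNST cell lines and primary human Schwann cells were grown for 72 h at 37 °C in 384-well plates containing five 10-fold compound dilutions. CellTox-Green, added before seeding at a final 1:1000 dilution, gave fluorescence from DNA released by disrupted cells, and signals were scaled to vehicle and positive-control wells. Curves were fitted with a four-parameter logistic model. Drug sensitivity score and relative IC50 come from these fits, with IC50 censored at the top concentration.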

[20] = tested on: HSC1 (primary human Schwann cells); assay: as above
In short: as §2

HS-PSS [21] = assay: as above
In short: as §2

[22] = tested on: HSC2 (primary human Schwann cells); assay: as above
In short: as §2

S1507-2 [23] = assay: as above
In short: as §2

ST8814 [24] = assay: as above
In short: as §2

Compound	% inhibition (STS26T [1]) [%]	% inhibition [2] [%]	% inhibition (HS-PSS [3]) [%]	% inhibition (S462 [4]) [%]	% inhibition [5] [%]	% inhibition (HS-Sch-2 [6]) [%]	% inhibition (S1507-2 [7]) [%]	% inhibition (YST-1 [8]) [%]	% inhibition (ST8814 [9]) [%]	drug sensitivity score (STS26T [10])	drug sensitivity score [11]	drug sensitivity score (HS-PSS [12])	drug sensitivity score (S462 [13])	drug sensitivity score [14]	drug sensitivity score (HS-Sch-2 [15])	drug sensitivity score (S1507-2 [16])	drug sensitivity score (YST-1 [17])	drug sensitivity score (ST8814 [18])	drug sensitivity score (STS26T [19])	drug sensitivity score [20]	drug sensitivity score (HS-PSS [21])	drug sensitivity score [22]	drug sensitivity score (S1507-2 [23])	drug sensitivity score (ST8814 [24])
CC[C@]1(O)C[C@H]2CN(CCc3c([nH]c4ccccc34)[C@@](C(=O)OC)(c3cc4c(cc3OC)N(C=O)[C@H]3[C@@](O)(C(=O)OC)[C@H](OC(C)=O)[C@]5(CC)C=CCN6CC[C@]43[C@@H]65)C2)C1 [Vincristine] (max concentration tested 1000 nM)	94.5	75.5	67.8	95.45 ± 0.25	90.7	94	79.8 ± 1.9	81.9	90.3	32.4	17.9	17	28.88 ± 0.23	20.9	30.5	21.1 ± 0.68	26.7	23.6	36	8.67	0.55	12.1	13 ± 3	24.3
CCC1=C[C@@H]2CN(C1)Cc1c([nH]c3ccccc13)[C@@](C(=O)OC)(c1cc3c(cc1OC)N(C)[C@H]1[C@@](O)(C(=O)OC)[C@H](OC(C)=O)[C@]4(CC)C=CCN5CC[C@]31[C@@H]54)C2 [Vinorelbine] (max concentration tested 10000 nM)	94.5	78.9	80.5	99.19 ± 0.43	88.8	98.5	80.4 ± 4.8	94.3	94.7	31.9	16.7	24.6	30.2 ± 0.41	20.8	40.6	19.1 ± 0.81	40.2	20.6	34.4	12.5	2.69	13.5	19.2 ± 3.6	19.7
CS(=O)(=O)c1ccc(C(=O)Nc2ccc(Cl)c(-c3ccccn3)c2)c(Cl)c1 [Vismodegib] (max concentration tested 10000 nM)	2.72	-4.59	13.9	-4.72 ± 14	-4.33	17.3	2.36 ± 1.7	6.14	-2.96	0	0	0.05	0	0	1.12	0	0	0	0	0	0	0	0	0
CC[C@@H]1C(=O)N(C)c2cnc(Nc3ccc(C(=O)N[C@H]4CC[C@H](N5CCN(CC6CC6)CC5)CC4)cc3OC)nc2N1C(C)C [Volasertib] (max concentration tested 1000 nM)	78.3	53	59.5	95.95 ± 0.59	79.3	59.3	79.2 ± 8.9	55.3	80.6	23.5	10.6	8.74	21.2 ± 0.31	14.8	19.5	17.138 ± 0.0087	15	14.4	30.8	12.8	0	19.2	13.2 ± 1.2	13.9
O=C(CCCCCCC(=O)Nc1ccccc1)NO [Vorinostat] (max concentration tested 10000 nM)	83.9	90.6	79.2	101.1 ± 0.69	88.6	99.6	103.1 ± 0.86	100	101	6.18	9.34	4.89	7.84 ± 1.1	8.25	8.6	9.06 ± 1.5	13	8.9	3.21	2.83	2.31	4.21	7.03 ± 1.4	5.36
Oc1nc(-c2ccc(C(F)(F)F)cc2)nc2c1CSCC2 [XAV-939] (max concentration tested 10000 nM)	16.5	37	23	6.97 ± 4	27.6	7.73	33.8 ± 7.3	23.1	0.935	0.217	6.05	1.55	0	4.89	0	2.76 ± 0.27	2.41	0	0	0	0	0	1.83 ± 2.6	0
FC(F)c1nc2ccccc2n1-c1nc(N2CCOCC2)nc(N2CCOCC2)n1 [ZSTK474] (max concentration tested 10000 nM)	80	75.7	30.6	59.4 ± 5	77.2	38.2	76.7 ± 9	81.3	69.7	14.6	8.75	3.54	8 ± 0.68	9.9	4.18	13.5 ± 2.1	15.1	8.94	0	0	0	0.497	0.69 ± 0.011	0

Reference: the supplement of paper PMC5579334
